The record followed here is paper PMC6098951, “Design and synthesis of new esters of terpenoid alcohols as 15-lipoxygenase inhibitors” (Iranian Journal of Basic Medical Sciences, 2018).

As usually defined, the IC50 is the concentration at which inhibition is half-maximal. Usually melting point stands for the temperature of the solid-liquid transition.

The target of data set [1] is T1, SLO (soybean 15-lipoxygenase: L1; EC 1,13,11,12) (Glycine max, UniProt P08170).
T1 sequence (P08170 1-839): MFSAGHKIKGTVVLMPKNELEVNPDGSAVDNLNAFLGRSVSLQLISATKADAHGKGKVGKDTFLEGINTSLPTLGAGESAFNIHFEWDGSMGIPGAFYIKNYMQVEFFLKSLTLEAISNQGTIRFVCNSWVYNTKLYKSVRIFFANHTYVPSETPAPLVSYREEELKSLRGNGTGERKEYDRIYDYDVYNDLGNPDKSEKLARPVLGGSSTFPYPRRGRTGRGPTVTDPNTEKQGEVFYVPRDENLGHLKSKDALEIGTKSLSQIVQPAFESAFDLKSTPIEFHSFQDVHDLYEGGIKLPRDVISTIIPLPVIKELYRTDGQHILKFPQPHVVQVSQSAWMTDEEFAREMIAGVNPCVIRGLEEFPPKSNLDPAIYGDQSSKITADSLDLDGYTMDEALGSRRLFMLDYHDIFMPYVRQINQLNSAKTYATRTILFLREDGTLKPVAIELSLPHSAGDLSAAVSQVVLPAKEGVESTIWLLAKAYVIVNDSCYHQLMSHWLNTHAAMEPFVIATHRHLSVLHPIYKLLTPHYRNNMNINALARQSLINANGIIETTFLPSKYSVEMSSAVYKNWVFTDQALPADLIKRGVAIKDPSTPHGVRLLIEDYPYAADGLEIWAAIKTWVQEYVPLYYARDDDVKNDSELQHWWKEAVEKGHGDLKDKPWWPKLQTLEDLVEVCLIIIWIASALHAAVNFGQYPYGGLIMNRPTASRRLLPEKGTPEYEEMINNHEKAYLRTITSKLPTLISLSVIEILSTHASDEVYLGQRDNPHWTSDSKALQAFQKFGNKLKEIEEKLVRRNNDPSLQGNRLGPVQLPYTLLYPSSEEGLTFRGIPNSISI
Nature of the data set: 15-lipoxygenase inhibitory assessment (peroxide formation method). In kind it is biochemical. The note with it: for IC50: SLO. As for the experimental part:
Linoleic acid and two assay solutions (A and B) were prepared in advance. Solution A was 50 mM (3-dimethylaminobenzoic acid) (DMAB) in l00 mM phosphate buffer (pH 7.0). Solution B was a mixture of l0 mM (3-methyl-2-benzothiazolonhydrazone) (MBTH) (3 ml), hemoglobin (5 mg/ml, 3 ml) in 50 mM phosphate buffer at pH 5.0 (25 ml). A linoleic acid solution was prepared by mixing 5 mg of linoleic acid with 0.5 ml ethanol and then diluting with KOH 100 mM to a final volume of 5 ml. In the standard assay, the sample in ethanol (25 µl), SLO (4,000 units/ml in 50 mM phosphate buffer pH 7.0; 25 µl), and phosphate buffer pH 7.0 (50 mM; 900 µl) were mixed in a test tube, and pre-incubation was carried out for 5 min at room temperature. A control test was performed with the same volume of ethanol. After pre-incubation, linoleic acid solution (50 µl) was added to start the peroxidation reaction, and, 7 min later, solution A (270 µl) and then solution B (130 µl) were added to start the color formation. Further, 5 min later, 200 µl of a 2 % sodium dodecyl sulfate (SDS) solution was added to terminate the reaction. The absorbance at 598 nm was compared to control test.
The inhibitory activity of all synthetic compounds against SLO (soybean 15-lipoxygenase: L1; EC 1,13,11,12) was determined using the peroxide formation method ([13], [14]). In this method, the basis of evaluation of lipoxygenase activity is measuring the concentration of fatty acid peroxide. All measurements were compared with 4-methyl-2-(4-methylpiperazinyl)pyrimido[4,5-b]benzothiazine (4-MMPB), one of the known lipoxygenase inhibitors (Table 1).

Data set [2] in a line: DPPH bleaching (radical scavenging). The note with it: 25 μM DPPH in ethanol, 30 min at room temperature, absorbance 517 nm; ± SEM. The procedure: DPPH solution (25 μM) in absolute ethanol was prepared. […] Ethanol was used as control solution. After 30 min at room temperature, the absorbance was recorded at 517 nm.
The radical scavenging ability of all synthetic compounds using stable free radicals (DPPH: 2,2-diphenyl-
1-picrylhydrazyl) has been previously measured (Table 1) ([15]). In this assessment, the DPPH bleaching potency of the synthetic compounds has been reported as IC50 values.
On the technique in general: DPPH is a stable violet radical that fades when it is reduced.

[3] abbreviates: linoleic acid substrate, pH 7.0, absorbance 598 nm, ± SEM, read-out: Lipoxygenase inhibition IC50.
Where [4] appears, read: read-out: IC50 inhibitory activity against soybean 15-lipoxygenase (abstract).

Like-named read-outs stand apart in the source and are kept apart here.

`Cc1nc(N2CCN(C)CC2)nc2c1Sc1ccccc1N2` [4-MMPB, 4-methyl-2-(4-methylpiperazinyl)pyrimido[4,5-b]benzothiazine, reference compound]: the IC50 in data set [1] (setting [3]) was determined as 38.5 ± 1.97 µM; in data set [2] it was 17.1 ± 2 µM.
For `COc1cc(C(=O)O[C@@H]2CC3CCC2(C)C3(C)C)ccc1O` (stereo partly drawn) [2h, (2R)-1,7,7-trimethylbicyclo[2.2.1]heptan-2-yl 4-hydroxy-3-methoxybenzoate], in that order: 273 ± 11.3 µM and greater than 500 µM.
On to `CC1(C)C2CCC1(C)[C@H](OC(=O)c1ccc(O)c(O)c1)C2` (stereo partly drawn) [2o, (2R)-1,7,7-trimethylbicyclo[2.2.1]heptan-2-yl 3,4-dihydroxybenzoate], for which the melting point fell in the range of 40 to 42 °C. Also, in data set [1] (setting [4]), the half-inhibitory concentration (IC50) is 0.78 µM. Further, half-maximal inhibition in data set [2] (IC50) was put at 9.4 ± 0.81 µM.
`COc1cc(C(=O)O[C@H]2C3(C)CCC(C3)C2(C)C)ccc1O` (stereo partly drawn) [2a, (2S)-1,3,3-trimethylbicyclo[2.2.1]heptan-2-yl 4-hydroxy-3-methoxybenzoate] returned a melting point of 120 to 122 °C. Further, in data set [1] (setting [3]), the 50% inhibitory concentration (IC50) worked out at 40.1 ± 2.2 µM. For the same molecule, in data set [2], the IC50 is greater than 500 µM.
`O=C(/C=C/c1ccc(O)c(O)c1)OC12CC3CC(CC(C3)C1)C2` [2l, (3s,5s,7s)-adamantan-1-yl (E)-3-(3,4-dihydroxyphenyl) acrylate] yielded a melting point of 191 to 196 °C. Moreover, in data set [1] (setting [3]), the IC50 was determined as 3.9 ± 0.61 µM. In data set [2], the IC50 came to 18 ± 1.9 µM.
As to `O=C(/C=C/c1ccc(O)c(O)c1)OCC12CC3CC(CC(C3)C1)C2` [2n, ((3r,5r,7r)-adamantan-1-yl)methyl(E)-3-(3,4-dihydroxyphenyl)acrylate], the melting point is 161 to 164 °C. Also, the IC50 in data set [1] (setting [3]) came out at 2.7 ± 0.13 µM. Also, the half-inhibitory concentration (IC50) in data set [2] came to 5.98 ± 0.53 µM.
In the case of `COc1cc(/C=C/C(=O)O[C@H]2C3(C)CCC(C3)C2(C)C)ccc1O` (stereo partly drawn) [2f, (2S)-1,3,3-trimethylbicyclo[2.2.1]heptan-2-yl(E)-3-(4-hydroxy-3-methoxyphenyl)acrylate], the IC50 in data set [1] (setting [3]) was 194 ± 11.3 µM; in data set [2] it was greater than 500 µM.
For `CC12CCC(C1)C(C)(C)[C@H]2OC(=O)/C=C/c1ccc(O)c(O)c1` (stereo partly drawn) [2g, (2S)-1,3,3-trimethylbicyclo[2.2.1]heptan-2-yl (E)-3-(3,4-dihydroxyphenyl)acrylate], in that order: 1.67 ± 0.22 µM and 10.9 ± 1.1 µM.
As to `O=C(OCC12CC3CC(CC(C3)C1)C2)c1ccc(O)c(O)c1` [2m, (3r,5r,7r)-adamantan-1-yl)methyl 3,4-dihydroxybenzoate], the melting point lay in the range of 212 to 217 °C. Also, in data set [1] (setting [3]), the IC50 turned out to be 3.57 ± 0.19 µM. Moreover, the IC50 in data set [2] came to 10.8 ± 0.67 µM.
Take `CC12CCC(C1)C(C)(C)[C@H]2OC(=O)c1cc(O)c(O)c(O)c1` (stereo partly drawn) [2e, (2S)-1,3,3-trimethylbicyclo[2.2.1]heptan-2-yl 3,4,5-trihydroxybenzoate]: the melting point lay within 171 to 173 °C. For the same molecule, the half-maximal inhibitory concentration (IC50) in data set [1] (setting [3]) was 1.71 ± 0.41 µM. The same molecule displayed an IC50 in data set [2] of 3.46 ± 0.33 µM.
Regarding `CCOC(=O)c1ccc(O)c(O)c1` [2p, ethyl catechuate], the values for the IC50 in data set [1] (setting [3]) and in data set [2] were 6.5 ± 0.53 µM and 9.2 ± 0.45 µM, respectively. Moreover, the “fold less inhibitory potency versus 2b” value in data set [1] (lipoxygenase inhibition IC50 compared with 2b) is “about 5 fold”.
On to `COc1cccc(C(=O)O[C@H]2C3(C)CCC(C3)C2(C)C)c1` (stereo partly drawn) [2c, (2S)-1,3,3-trimethylbicyclo[2.2.1]heptan-2-yl 3-methoxybenzoate], for which the half-maximal inhibitory concentration (IC50) in data set [1] (setting [3]) and in data set [2] was greater than 500 µM throughout.
With `COc1ccc(C(=O)O[C@H]2C3(C)CCC(C3)C2(C)C)cc1OC` (stereo partly drawn) [2d, (2S)-1,3,3-trimethylbicyclo[2.2.1]heptan-2-yl 3,4-dimethoxybenzoate], the half-inhibitory concentration (IC50) in data set [1] (setting [3]) and in data set [2] was greater than 500 µM in each case.
Turning to `O=C(OC12CC3CC(CC(C3)C1)C2)c1cc(O)c(O)c(O)c1` [2k, (3s,5s,7s)-adamantan-1-yl 3,4,5-trihydroxybenzoate], the melting point lay within 195 to 199 °C. Further, the IC50 in data set [1] (setting [3]) came to 2.28 ± 0.1 µM. The molecule also registered a concentration for half-maximal inhibition (IC50) in data set [2] of 4.5 ± 0.19 µM.
In the same order, the values of `COc1cc(C(=O)OC23CC4CC(CC(C4)C2)C3)ccc1O` [2i, (3s,5s,7s)-adamantan-1-yl 4-hydroxy-3-methoxy benzoate] are 136 to 139 °C, 164 ± 13.2 µM and greater than 500 µM.
For `COc1cc(/C=C/C(=O)NC23CC4CC(CC(C4)C2)C3)ccc1O` [3b', (E)-N-((3s,5s,7s)-adamantan-1-yl)-3-(4-hydroxy-3-methoxyphenyl)acrylamide], in that order: 130 to 132 °C, 188 ± 14 µM and 5.05 ± 4.08 µM.
`O=C(OC12CC3CC(CC(C3)C1)C2)c1ccc(O)c(O)c1` [2j, (3s,5s,7s)-adamantan-1-yl 3,4-dihydroxybenzoate] registered a melting point of 170 to 173 °C. In data set [1] (setting [4]), the IC50 amounted to 0.95 µM. In addition, 9.1 ± 0.79 µM corresponded to half-maximal inhibition in data set [2] (IC50).
Molecule `CC12CCC(C1)C(C)(C)[C@H]2OC(=O)c1ccc(O)c(O)c1` (stereo partly drawn) [2b, (2S)-1,3,3-trimethylbicyclo[2.2.1]heptan-2-yl 3,4-dihydroxybenzoate] returned a melting point of 58 to 61 °C. For the same molecule, the IC50 in data set [1] (setting [3]) is 1.68 ± 0.61 µM. The molecule also registered an IC50 in data set [2] of 10 ± 1 µM.
On to `O=C(NC12CC3CC(CC(C3)C1)C2)c1ccc(O)c(O)c1` [3a', N-((3s,5s,7s)-adamantan-1-yl)-3,4-dihydroxybenzamide], for which the melting point was 209 to 211 °C. In addition, the IC50 in data set [1] (setting [3]) was determined as 5.4 ± 0.55 µM. This molecule returned an IC50 in data set [2] of 6.5 ± 0.43 µM.
